Assay results as given in patent US20080199423A1, “Methods of Using Apo2l Receptor Agonists and Ink Cell Activators” (GENENTECH, INC., priority 2004, published 2008).
Entries after “also recorded” stand apart in the source; their conditions may differ. The star is where a group is joined. Cbz = O=C(OCc1ccccc1)*; CH2F = FC*

What was measured:
[1] = system: 4T1 cells; assay: Lysis of 4T1 cells by activated NK cells treated with inhibitors; format: cell-based, mouse; conditions: E/T ratio 25 to 1
Protocol: (§1) The cytolytic activity of resting and activated NK cells was evaluated against 4T1 target cells. The activated NK cells were treated with inhibitors of Perforin maturation (concanamycin A), GraB (Z-AAD-FMK), PI3K (wortmannin), MEK1 kinase (PD98059), S6 kinase (rapamycin) and JNK (SP) to assess the role of cytotoxic granules. The E/T ratio was 25 to 1, and results shown are from one representative donor (out of three donors). […] 4T1 target cells were treated with Apo2L/TRAIL protein (100 ng/ml) or with activated NK cells (“Act NK”) for 30 minutes, 1 hour or 4 hours. The E/T ratio was 10:1. Extracts of the 4T1 cells were analysed by SDS-PAGE and immunoblot analysis for pro-caspase-3, cleaved caspase-3 and cleaved PARP.
For the cytotoxicity assays, target cells were labeled with 100 mCi ^51Cr for 1 hour at 37° C. and then washed 3 times before use. […] The cytotoxicity assays were performed in round bottom 96 well plates and the percent specific lysis was calculated as 100× (experimental cpm-spontaneous cpm)/(total cpm-spontaneous cpm). The role of Apo2L/TRAIL expressed by NK cells in the lysis of target cells was evaluated using anti-Apo2L/TRAIL mAbs (5C2 and 1D1, Genentech, Inc.). […]

[2] = system: B16BL10 melanoma cells; assay: 51Cr release cytotoxicity assay on B16 melanoma target cells; format: cell-based, mouse
Protocol: (§2) Purified NK cells were treated with poly(I:C) or R-848 and incubated with B16BL10 melanoma cells (ATCC) at the indicated ratios. Purified NK cells stimulated with R-848 were incubated with HCT116 target cells (ATCC) at the indicated ratios. The role of Apo2L/TRAIL in lysis assays in panels B and C was determined by preincubation with neutralizing (5C2) and non-neutralizing (1D1) anti-Apo2L/TRAIL mAbs. The data has been confirmed with NK cells from at least 3 donors and less that 5% SD was observed.
(§3) For the cytotoxicity assays, target cells were labeled with 100 mCi ^51Cr for 1 hour at 37° C. and then washed 3 times before use. 10^4 target cells were added to varying numbers of effector cells at the indicated ratios and incubated in duplicate wells for 4 hours at 37° C., 5% CO2, and supernatants were used to determine ^51Cr released using a Gamma counter. The cytotoxicity assays were performed in round bottom 96 well plates and the percent specific lysis was calculated as 100× (experimental cpm-spontaneous cpm)/(total cpm-spontaneous cpm). The role of Apo2L/TRAIL expressed by NK cells in the lysis of target cells was evaluated using anti-Apo2L/TRAIL mAbs (5C2 and 1D1, Genentech, Inc.). Isotype control antibodies were obtained from BD Biosciences.

[3] = system: 4T1 cells; assay: 51Cr release cytotoxicity assay, purified human NK cells on 4T1 target cells; format: cell-based, mouse; conditions: for Lysis of 4T1 cells by NK cells treated with TLR activating agent: NK cells treated for 18 hours with agent, 4 hour incubation, E:T 1:1 to 50:1
Protocol: 4T1 cells (a metastatic mammary carcinoma cell line derived from BALE/C mice, obtained from Fred Miller, Karmanos Cancer Institute) were assayed in an in vitro cytotoxicity assay to examine tumoricical effects of various Toll receptor (“TLR”) activators and NK cells. The 4T1 target cells were cultured in IDMEM medium supplemented with 10% FCS, glutamine and penicillin/streptomycin, labeled with 100 mCi ^51Cr for 1 hour at 37° C. and then washed three times with culture medium.
To prepare purified effector NK cells for the assay, PBMCs from healthy human donors were isolated by standard density-gradient centrifugation over Ficoll-Paque Plus (Pharmacia). CD3 positive cells were first depleted using anti-CD3 microbeads (obtained from Miltenyi), and then the NK cells were purified using anti-CD56 microbeads (Miltenyi). The purity of the NK cell preparation was 95% or higher as determined by staining with mouse anti-human CD56 PE and mouse anti-human CD14 PE conjugates (BD Biosciences). The isolated cells were cultured in RPMI 1640 supplemented with heat inactivated 10% FCS, penicillin, streptomycin, 10 mM sodium pyruvate, 2 mM L-glutamine and 10 mM HEPES.
10^4 of the labeled 4T1 cells were added to varying numbers of purified NK cells (either untreated control NK cells or NK cells treated with specific agent) at ratios of 1:1, 3:1, 6:1, 12:1, 25:1, and 50:1, respectively. NK cells were treated for 18 hours with one of the following TLR activating agents: sBLP (1 μg/ml, Bachem); poly(I:C) (50 μg/ml, Pharmacia); E. coli 055:B5 LPS (phenol extracted, 1 μg/ml, Sigma); Flagellin (1 μg/ml, A. Gewirtz, Emory Univerity); R-848 (5 μg/ml, Invivogen); CpG oligonucleotides (2006 and 2216, 5 μM, Invivogen). The cytotoxicity assays were performed in round bottom 96 well plates, and the samples were incubated in duplicate wells for 4 hours at 37° C., 5% CO2. RPMI 1640 supplemented with heat inactivated 10% FCS, penicillin, streptomycin, 10 mM sodium pyruvate, 2 mM L-glutamine and 10 mM HEPES was used during incubation.
After the 4 hour incubation, supernatants were aspirated from the wells and examined for ^51Cr release using a Gamma counter. The percent specific lysis was calculated as 100× (experimental cpm-spontaneous cpm)/(total cpm-spontaneous cpm). The data are representative of at least three experiments and <5% SD was observed.
A cytotoxicity assay was performed as described in Example 1, except for the following modifications. Purified NK cells were treated with poly(I:C) or R-848 overnight and incubated with 4T1 cells. The role of TNF-alpha, FasL, and Apo2L/TRAIL was evaluated by preincubation of the NK cells with neutralizing antibodies to the respective ligands. The following neutralizing antibodies were added at final concentration of 2 μg/ml: anti-Fas-L (mIgG2b, R&D Systems), anti-TNF-alpha (mIgG1, Genentech), and anti-Apo2L/TRAIL (5C2, mIgG2a, ATCC HB-12258 and 1D1, mIgG2b; ATCC HB-12257). Isotype control antibodies were obtained from BD Biosciences.
as §3

[4] = system: Apo2L/TRAIL mRNA in NK cells; assay: RT-QPCR of Apo2L/TRAIL message in treated NK cells; format: cell-based, human
Protocol: In another experiment, the purified NK cells were treated for 18 hours in RPMI 1640 supplemented with heat inactivated 10% FCS, penicillin, streptomycin, 10 mM sodium pyruvate, 2 mM L-glutamine and 10 mM HEPES with poly(I:C) (50 μg/ml), R-848 (5 μg/ml) or hIFN-alpha (1000 U/ml, Sigma) in the presence or absence of 10 μg/ml cycloheximide and Apo2L/TRAIL was measured in the extracted RNA. RT-PCR was performed and the amount of cDNA was quantitated by RT-QPCR analysis, normalized to RPL19, and fold induction over control is shown in FIG. 2A. Primers were designed as per instructions (Primer Express) and sequences are: hRPL19-probe: […] (SEQ ID NO:7); hRPL19-For: […] (SEQ ID NO:8); hRPL19-Rev: […] (SEQ ID NO:9); hApo2L-probe: […] (SEQ ID NO:10); hApo2L-For: […] (SEQ ID NO:11); hApo2L-Rev: […] (SEQ ID NO:12). cDNA was analyzed for expression of RPL19 and Apo2L/TRAIL by RT-QPCR (Applied Biosystems) as described in Zarember et al., J. Immunol., 168(2):554-61 (2002). Fold increase values are expressed as arbitrary units, relative to the calibrator gene RPL19.

[5] = system: HCT116 cells; assay: 51Cr release cytotoxicity assay on HCT116 target cells; format: cell-based
Protocol: as §2, §3

[6] = system: cell surface Apo2L/TRAIL on NK cells; assay: Flow cytometry of cell surface Apo2L/TRAIL on purified NK cells; format: cell-based, human; conditions: 5C2-Alexa 488 staining
Protocol: Cell surface Apo2L/TRAIL on purified NK cells treated with poly(I:C), R-848 or hIL-2 (30 ng/ml, BD Biosciences) was also analyzed by cytometry. Isotype control (IgG2a, Sigma) and anti-Apo2L/TRAIL antibody (5C2) were labeled with Alexa 488 (Molecular Probes). 5×10^5 cells were incubated with 2 μg of human IgG to block FcRs and 1 μg of the directly labeled mAbs at 4° C. for 45 minutes, followed by 2 washes. Stained cells were analyzed using a FACScan cytometer (Becton Dickenson) and Cellquest software.

[7] = system: SKMES-1 cells; assay: 51Cr release by SKMES-1 cells incubated with soluble Apo2L/TRAIL; format: cell-based; conditions: range of concentrations, 4 hours
Protocol: The role of Apo2L/TRAIL was evaluated by preincubation of NK cells with either a neutralizing (5C2) or non-neutralizing (1D1) mAb. The % lysis was plotted, and the results are representative of 3 experiments (less than 5% SD was observed). […] The supernatants were then assessed for Cr release. Similar cytolysis results were obtained in at least 3 experiments.
as §3

[8] = system: 4T1 cells; assay: Clonogenic potential of 4T1 cells; format: cell-based, mouse
Protocol: Since both cell surface Apo2L/TRAIL and perforin granules are essential for lysis of 4T1 cells, assays were conducted to examine if resting NK cells could be “armed” by the addition of soluble Apo-2L/TRAIL protein. There is precedence for membrane bound and soluble forms of TNF family members to display differential behavior upon application to the target cell. With the aim of corroborating the ^51Cr release assays, the clonogenic potential of 4T1 cells was evaluated by treatment with soluble Apo2L/TRAIL and resting NK cells.

[9] = system: C57MG; assay: 51Cr release cytotoxicity assay on C57MG cells; format: cell-based, mouse
[10] = system: caspase-3 and PARP cleavage in 4T1 cells; assay: Immunoblot for caspase-3 and PARP cleavage in 4T1 cells; format: cell-based, mouse
Protocol: as §1
4T1 cells were treated with Apo2L/TRAIL, resting NK cells (“NK”) or activated NK cells (“Act NK”) separately or in combination. The lysates were analyzed for cleavage of PARP, an indicator of caspase-3 activation. NK cells from multiple donors were utilized and results from one representative donor are shown. […]
Total cell extracts were prepared from 4T1 cells using lysis buffer (0.1 M Tris pH 8.0, 500 mM NaCl, 2 mM EDTA, […], 10% glycerol, supplemented with Complete Protease Inhibitor Cocktail, Roche), and the lysates were clarified by centrifugation at 16,000 rpm for 10 minutes at 4° C. […] Immune complexes were detected using enhanced chemiluminesence (Amersham).

C/C=C/[C@H]1O[C@@](O)([C@@H](C)[C@H](O)[C@H](C)[C@H]2OC(=O)/C(OC)=C/C(C)=C/[C@@H](C)[C@@H](O)[C@@H](CC)[C@@H](O)[C@H](C)C/C(C)=C/C=C/[C@@H]2OC)C[C@@H](O[C@H]2C[C@@H](O)[C@H](OC(N)=O)[C@@H](C)O2)[C@@H]1C [Concanamycin A]
Effect of inhibitor treatment of activated NK cells on lysis of 4T1 cells [1]: blocked the cytotoxic activity

CCOCc1nc2c(N)nc3ccccc3c2n1CC(C)(C)O [R-848]
Killing of B16 melanoma cells by stimulated NK cells ([2]; NK cells stimulated with agent): efficiently killed | Lysis of 4T1 cells by NK cells treated with TLR activating agent [3]: efficiently killed | Increase of Apo2L/TRAIL mRNA over control ([4]; NK cells treated 18 hours, normalized to RPL19): 25 fold | Cytotoxicity of stimulated NK cells towards HCT116 cells ([5]; NK cells stimulated with agent): increased cytoxicity | Cell surface expression of Apo2L/TRAIL on NK cells [6]: detectable cell surface expression

C[C@@H]1C[C@@H]([C@H](O)CC2CC(=O)NC(=O)C2)C(=O)[C@@H](C)C1 [cycloheximide]
Effect of protein synthesis inhibitor on induction of Apo2L/TRAIL message in stimulated NK cells ([4]; 10 μg/ml cycloheximide, poly(I:C), R-848 or IFN-alpha stimulated): not blocked

Apo2L/TRAIL: recombinant Apo2L/TRAIL (amino acids 114-281), prepared as in Ashkenazi et al. 1999
Lysis of B16BL10 cells, Apo2L/TRAIL added to activated NK cells ([2]; plus activated NK cells): no significant increase | Lysis of B16BL10 cells, Apo2L/TRAIL added to resting NK cells ([2]; plus resting NK cells): increased the lysis observed | Apoptotic effect of Apo2L/TRAIL protein alone on B16 cells ([2]; range of concentrations, no NK cells): certain resistance | 51Cr release by SKMES-1 cells, Apo2L/TRAIL alone [7]: effectively mediated release | Clones of 4T1 cells, simultaneous soluble Apo2L/TRAIL and resting NK cells ([8]; NK cells at ratio 25 to 1, after 5 days): dramatic reduction in clones | Clonogenic capacity of 4T1 cells, soluble Apo2L/TRAIL alone ([8]; individual treatment): not affected in terms of clonogenic capacity | Lysis of C57MG cells, Apo2L/TRAIL added to activated NK cells ([9]; plus activated NK cells): no significant increase | Lysis of C57MG cells, Apo2L/TRAIL added to resting NK cells ([9]; plus resting NK cells): increased the lysis observed | Lysis of 4T1 cells, Apo2L/TRAIL with resting NK cells ([3]; increasing concentrations of Apo2L/TRAIL plus resting NK cells): dose dependent lysis | Lysis of 4T1 cells, Apo2L/TRAIL added to activated NK cells ([3]; plus activated NK cells): Some increase | Lysis of 4T1 cells by Apo2L/TRAIL protein alone ([3]; range of concentrations, up to 2 μg/ml, no NK cells): resistant to lysis; also recorded: certain resistance | Cleavage of pro-caspase-3 and PARP in 4T1 cells, Apo2L/TRAIL alone ([10]; 100 ng/ml, 30 minutes, 1 hour or 4 hours): did not result in cleavage | PARP cleavage in 4T1 cells, resting NK cells along with soluble Apo2L/TRAIL ([10]; combined treatment): production of cleaved PARP | Cytotoxic effect on HCT116 cells, Apo2L/TRAIL with limiting ratios of resting NK cells ([5]; 5 ng/ml Apo2L/TRAIL plus resting NK cells): enhanced cytotoxic effect | Lysis of HCT116 cells by Apo2L/TRAIL alone ([5]; 5 ng/ml Apo2L/TRAIL, no NK cells): no lysis | 51Cr release by HCT-116 cells, Apo2L/TRAIL alone ([5]; range of concentrations, 4 hours): effectively mediated release

Cbz-Ala-Ala-Asp-CH2F [GraB inhibitor]
Effect of inhibitor treatment of activated NK cells on lysis of 4T1 cells [1]: reduction in lysis

Flagellin
Lysis of 4T1 cells by NK cells treated with TLR activating agent [3]: neither BLP, LPS, Flagellin, nor the CpG oligonucleotides induced cytotoxic activity
